What was measured:
[1] = system: conscious New Zealand White rabbits; test: Blood pressure in conscious rabbits; type: in vivo, rabbit
Experimental: Methods: Four adult New Zealand White rabbits of both sexes were chosen for these studies. […] To unveil peripheral effects of Compound 3b, two sets of acute studies were conducted in rabbits. […] A single intravenous bolus dose at 3 mg/kg was given and a time-course study was conducted in the second set of studies. Systolic, […], mean and […] blood pressures were recorded in both the studies. […] In a separate set of studies, Clonidine (positive control) was tested where all experimental procedures including dose-regimen were identical to that of the studies with […].

[2] = target: T1, human recombinant adrenergic α1D receptor (Homo sapiens, UniProt P25100); test: Radioligand binding, adrenergic α1D ([3H]Prazosin)
T1 construct: expressed in transfected cells; host or cells: HEK-293
T1 sequence (P25100 1-572): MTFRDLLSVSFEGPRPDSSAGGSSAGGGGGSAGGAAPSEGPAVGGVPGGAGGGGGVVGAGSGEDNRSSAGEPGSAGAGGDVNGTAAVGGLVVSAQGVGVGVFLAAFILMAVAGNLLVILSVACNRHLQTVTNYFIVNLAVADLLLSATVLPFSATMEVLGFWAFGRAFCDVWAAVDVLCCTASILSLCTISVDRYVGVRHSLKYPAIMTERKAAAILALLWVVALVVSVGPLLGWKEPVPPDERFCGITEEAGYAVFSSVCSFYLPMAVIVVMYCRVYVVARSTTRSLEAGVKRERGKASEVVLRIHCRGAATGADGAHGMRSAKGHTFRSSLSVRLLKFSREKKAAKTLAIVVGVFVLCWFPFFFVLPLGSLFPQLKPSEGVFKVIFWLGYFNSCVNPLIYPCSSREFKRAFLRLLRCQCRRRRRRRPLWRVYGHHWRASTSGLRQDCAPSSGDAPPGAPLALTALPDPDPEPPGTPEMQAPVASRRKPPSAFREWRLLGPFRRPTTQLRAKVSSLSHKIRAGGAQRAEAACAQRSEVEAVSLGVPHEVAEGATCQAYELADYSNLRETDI

[3] = target: T2, human Adrenergic a2A receptor (Homo sapiens, UniProt P08913); test: Inverse agonist activity, GTPg35S binding functional assay (FAST-006G); type: biochemical; details: dose-response, duplicates (FIG. 28)
T2 construct: purchased Euroscreen FAST-006G
T2 sequence (P08913 1-465): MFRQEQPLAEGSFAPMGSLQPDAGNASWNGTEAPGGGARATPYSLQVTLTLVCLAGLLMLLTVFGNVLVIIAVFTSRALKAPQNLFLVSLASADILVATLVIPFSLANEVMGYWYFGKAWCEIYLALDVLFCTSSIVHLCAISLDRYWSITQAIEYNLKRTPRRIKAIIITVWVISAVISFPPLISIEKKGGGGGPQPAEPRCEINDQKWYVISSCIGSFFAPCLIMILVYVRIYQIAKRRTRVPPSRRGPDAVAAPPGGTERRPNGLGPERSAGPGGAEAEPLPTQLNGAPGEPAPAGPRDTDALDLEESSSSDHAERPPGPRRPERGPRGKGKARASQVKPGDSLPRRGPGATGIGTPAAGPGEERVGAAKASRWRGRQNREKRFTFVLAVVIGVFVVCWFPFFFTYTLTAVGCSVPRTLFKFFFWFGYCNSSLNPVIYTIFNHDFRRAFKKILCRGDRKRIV
Experimental: SPA 35S-GTPgS and Radioligand Binding experiments were conducted with Euroscreen membrane preparations. Compound was tested for inverse agonist activity at the human Adrenergic a2A receptor using GTPg35S binding functional assay (FAST-006G) in dose-response and in duplicates.

Row | Ki [2] | inverse agonist activity [3] | Compound | dose that produced 80% of the maximum drop in blood pressure ([1]; i.v. cumulative dose-response study) | heart rate ([1]; i.v. cumulative dose-response study (FIG. 26, fourth panel)) | maximum arterial blood pressure drop ([1]; i.v. cumulative dose-response study, Compound 3b maximum at 10 mg/kg) | duration of arterial blood pressure effect ([1]; single i.v. bolus dose at 3 mg/kg, 3 hours data collection) | drop in arterial blood pressure ([1]; single i.v. bolus dose at 3 mg/kg, time-course study (FIG. 27))
1 | 0.258 µM |  | Cc1ccc2c(c1)c1c(n2CC(O)c2ccncc2)CCN(C)C1 (single isomer, unassigned) [3b] | 3 mg/kg | tachycardia | −11.6 mmHg | stable from 90 to 180 minutes | ~−6 mmHg
2 |  | showed inverse agonist activity | Cc1ccc2c(c1)c1c(n2CC(O)c2ccncc2)CCN2CCCC12 (single isomer, unassigned) [129d] |  |  |  |  | 
